pIC50: −log10 of the molar value.

The test system of assay [1] is breast tumor (MCF7) cell line. The experiment in a line: Methylene Blue Growth Inhibition Assay, MCF7. It is filed as cell-based. As to conditions: Homo sapiens, 72 h; MCF7, 3 days; read-out: MeB Cell Line IC50. The source says: (§1) II. Methylene Blue Growth Inhibition Assay
(§2) Medium was removed by aspiration.

A further assay concerns MDA435. The experiment in a line: cells. As to conditions: MDA435, 72 h, read-out: MeB Cell Line IC50.
Assay [2] has as its system lung (H460) tumor cell line. The experiment in a line: Methylene Blue Growth Inhibition Assay, H460. It is filed as cell-based. As to conditions: Homo sapiens, NCI-H460, 72 h; H460, 3 days; read-out: MeB Cell Line IC50.
Source text: as §1, §2

In assay [3] the test system is colon (RKO) tumor cell line. As to the kind of experiment: Methylene Blue Growth Inhibition Assay, RKO. Format: cell-based. As to conditions: Homo sapiens, 72 h, 3 days, read-out: MeB Cell Line IC50.
Source text: as §1, §2

For assay [4], the system named is prostate (PC3) tumor cell line. As to the kind of experiment: Methylene Blue Growth Inhibition Assay, PC3. To be noted: Homo sapiens, 72 h; PC3, 3 days; read-out: MeB Cell Line IC50. It is filed as cell-based.
Source text: as §1, §2

Another assay concerns SAOS2. The experiment in a line: cells. As to conditions: Homo sapiens, SAOS-2, 72 h, read-out: MeB Cell Line IC50.
A further assay concerns IMR90. The experiment in a line: cells. To be noted: Homo sapiens, IMR-90, 72 h, read-out: MeB Cell Line IC50.
For assay [5], the system named is colon (HCT116) tumor cell line. As to the kind of experiment: Methylene Blue Growth Inhibition Assay, HCT116. Format: cell-based. To be noted: Homo sapiens, HCT-116, 72 h; HCT116, 3 days; read-out: MeB Cell Line IC50.
Source text: as §1, §2

Assay [6] relates to Normal Human foreskin fibroblasts (HFF). The experiment in a line: Methylene Blue Growth Inhibition Assay, HFF. It is filed as cell-based. As to conditions: 72 h, 3 days, read-out: MeB Cell Line IC50.
Source text: as §1, §2

The test system of the next assay is COLO205. As to the kind of experiment: cells. To be noted: Homo sapiens, COLO 205, 72 h, read-out: MeB Cell Line IC50.
Assay [7] has as its target T1, truncated human PLK1 (kinase domain) (Homo sapiens, UniProt P53350).
T1 construct: made in house; host or cells: baculovirus-infected T. ni insect cells
The experiment in a line: Assay for Inhibition of PLK1 (33P SPA enzyme activity). It is filed as biochemical. To be noted: 1 μM ATP, 2 nM enzyme; read-out: Ave pIC50 PLK Enzyme Inhibition (converted). In outline:
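Enzyme is the 6×His-tagged PLK1 kinase domain, purified by Ni-chelate and gel filtration. Compounds added in DMSO, then enzyme; reaction stopped with EDTA/streptavidin SPA bead mix containing 60 μM ATP, read by 33P scintillation proximity.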

T1 sequence (P53350 21-346): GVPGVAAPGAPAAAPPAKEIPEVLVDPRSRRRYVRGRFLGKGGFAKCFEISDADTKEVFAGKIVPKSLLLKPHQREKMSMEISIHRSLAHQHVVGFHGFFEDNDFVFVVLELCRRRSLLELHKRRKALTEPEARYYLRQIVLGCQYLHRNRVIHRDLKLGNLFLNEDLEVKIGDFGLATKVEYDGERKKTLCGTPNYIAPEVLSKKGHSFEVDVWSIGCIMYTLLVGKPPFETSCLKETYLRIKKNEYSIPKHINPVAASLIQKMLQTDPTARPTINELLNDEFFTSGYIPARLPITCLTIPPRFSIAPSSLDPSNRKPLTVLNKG

On to `COc1cc(Nc2ncc3c(C)nc(-c4ccccc4)n3n2)cc(OC)c1OC` [Example 1, 5-Methyl-7-phenyl-N-(3,4,5-trimethoxyphenyl)imidazo[5,1-f][1,2,4]triazin-2-amine], for which the pIC50 in assay [1] was 5.00 to 6.00; in the assay with MDA435, 5.00 to 6.00; in assay [2] it was 5.00 to 6.00; in [3], 5.00 to 6.00; in [4], 4.52 to 5.00; with SAOS2, 5.00 to 6.00. Besides, the negative-log IC50 (pIC50) in the assay on IMR90 was 4.52 to 5.00; in assay [5] it was 5.00 to 6.00; in [6], 4.52 to 5.00; in the assay on COLO205 it was 5.00 to 6.00.
As for `Cc1nc(-c2cccc(C(F)(F)F)c2)n2nc(Nc3cccc(CNC(=O)OC(C)(C)C)c3)ncc12` [Example 48, tert-Butyl 3-({5-methyl-7-[3-(trifluoromethyl)phenyl]imidazo[5,1-f][1,2,4]triazin-2-yl}amino)benzylcarbamate], the pIC50 is 4.52 to 5.00 in assay [1]; 4.52 to 5.00 in [2]; 5.00 to 6.00 in assay [3]; 4.52 to 5.00 in assay [4]; 4.52 to 5.00 in assay [5]; 4.52 to 5.00 in assay [6]. Further, in assay [7], the IC50 is 0.1 to 10 µM.
Turning to `Cc1nc(-c2ccccc2)n2nc(Nc3cccc(CCS(=O)(=O)O)c3)ncc12` [Example 57, 2-{3-[(5-Methyl-7-phenylimidazo[5,1-f][1,2,4]triazin-2-yl)amino]phenyl}ethanesulfonic acid], the negative-log IC50 (pIC50) in assay [1], in assay [2], in assay [3], in assay [4], in [5] and in assay [6] was 4.52 to 5.00 each time. In addition, the IC50 in [7] is below 0.1 µM.

For the origin of these results see US7462614B2, “Imidazotriazine compounds” (Smithkline Beecham Corporation, priority 2003, dated 2008).
